Patent US11364275B2, “Linear lipopeptide paenipeptins and methods of using the same” (priority 2017, dated 2022)
Where two headings read alike, the source gives them in different places. Where a SMILES comes first, the peptide text is derived from it. [ ]: non-standard residue; d: D form. The star is where a group is joined. ξ: configuration not given here. Thr(3ξ) = CC(O)[C@H](N)C(=O)O; Decanoyl = CCCCCCCCCC(=O)*; Heptanoyl = CCCCCCC(=O)*; Octanoyl = CCCCCCCC(=O)*; Orn = NCCC[C@H](N)C(=O)O; Dab = NCC[C@H](N)C(=O)O; ξDab = NCCC(N)C(=O)O; Bz = O=C(c1ccccc1)*

Tests used:
[1] = tested on: Acinetobacter baumannii ATCC 19606; assay: MIC of antibiotics with or without paenipeptin analogues (potentiation); type: cell-based; settings: A. baumannii ATCC 19606; for MIC of antibiotic at 0 μg/ml paenipeptin analogue: antibiotic alone; for Sensitization factor (rifampicin): MIC without / with 4 μg/mL paenipeptin
From the text: (§1) Gram-negative bacteria, including Acinetobacter and Klebsiella, are intrinsically resistant to the hydrophobic antibiotic rifampicin.

[2] = tested on: Klebsiella pneumoniae ATCC 13883; assay: as above; type: cell-based; settings: K. pneumoniae ATCC 13883; for MIC of antibiotic at 0 μg/ml paenipeptin analogue: antibiotic alone; for Sensitization factor (rifampicin): MIC without / with 4 μg/mL paenipeptin
From the text: as §1

[3] = tested on: Klebsiella pneumoniae ATCC 13883; type: cell-based
[4] = tested on: rabbit red blood cells; assay: Hemolytic activity; type: cell-based; settings: for Hemolysis: relative to Triton X-100
Procedure: Hemolytic activity was evaluated using defibrinated rabbit blood in a 96-well plate as described previously. A nonionic surfactant Triton X-100, which is capable of lysing red blood cells (RBCs), was used at 0.1% as a positive control. Briefly, rabbit blood (Hardy Diagnostics, Santa Maria, Calif.) was diluted with phosphate buffered saline (PBS; pH 7.2) at a 1:19 ratio (v/v) and free hemoglobin was removed by washing RBCs and centrifugation four times at 1,000×g at 4° C. for 5 min. Aliquots (50 μL) of washed RBCs were incubated with 150 μL two-fold dilutions of paenipeptin analogues at final concentrations of 16-128 μg/mL at 37° C. for 30 min in a microtiter plate (NBS, Corning Inc.). After incubation, treated RBCs were gently mixed by repeated pipetting. Aliquots (20 μL) of the cell suspension were mixed with 200 μL PBS in a new 96-well plate and centrifuged at 2,204×g for 10 min. The supernatant was transferred to a new 96-well plate for absorbance measurement at 415 nm using a Cell Imaging Multimode Reader (Cytation 3, BioTek; Winooski, Vt.). The percent hemolysis observed after exposure to each paenipeptin analogue was calculated relative to Triton X-100.

[5] = tested on: methicillin-resistant S. aureus ATCC 43300; type: cell-based, Staphylococcus aureus
[6] = tested on: Enterococcus faecium ATCC 19434; type: cell-based
Procedure: (§2) The minimum inhibitory concentration (MIC) of paenipeptin analogues was determined using the broth microdilution method (Wirker, M. A. Methods for Dilution Antimicrobial Susceptibility Tests for Bacteria that Grow Aerobically: Approved Standard M07-A8; Clinical and Laboratory Standards Institute, Wayne, Pa., 2009). Seven reference strains (Acinetobacter baumannii ATCC 19606, Escherichia coli ATCC 25922, Klebsiella pneumoniae ATCC 13883, Pseudomonas aeruginosa ATCC 27853, Enterococcus faecium ATCC 19434, Staphylococcus aureus ATCC 29213 and methicillin-resistant S. aureus ATCC 43300) were subjected to MIC testing.
(§3) Paenipeptin analogues were two-fold diluted in tryptic soy broth (TSB; Becton Dickinson) and mixed with an equal volume of bacterial suspensions in TSB containing approximately 1.5×10^5 colony-forming units (CFU)/mL in a clear UV-sterilized 96-well microtiter plate (NBS, Corning Inc., Corning, N.Y.). […] The microtiter plate was incubated at 37° C. for 18-20 h.

[7] = tested on: Acinetobacter baumannii ATCC 19606; type: cell-based
[8] = tested on: Staphylococcus aureus ATCC 29213; type: cell-based
Procedure: as §2, §3

[9] = tested on: Pseudomonas aeruginosa ATCC 27853; type: cell-based
Procedure: as §2, §3

[10] = tested on: Escherichia coli ATCC 25922; type: cell-based

Structure (SMILES)	MIC of antibiotic at 0 μg/ml paenipeptin analogue [1] [μg/ml]	MIC of antibiotic at 0 μg/ml paenipeptin analogue [2] [μg/ml]	MIC of rifampicin at 2 μg/mL of paenipeptin analogue [1] [μg/ml]	MIC of rifampicin at 4 μg/mL of paenipeptin analogue [1]	Sensitization factor (rifampicin) [1]	MIC of rifampicin at 2 μg/mL of paenipeptin analogue [2]	MIC of rifampicin at 4 μg/mL of paenipeptin analogue [2]	Sensitization factor (rifampicin) [2]	MIC ([3]; ATCC 13883) [µg/mL]	Hemolysis ([4]; 16 μg/mL) [%]	Hemolysis ([4]; 32 μg/mL) [%]	Hemolysis ([4]; 64 μg/mL) [%]	Hemolysis ([4]; 128 μg/mL) [%]	MIC ([5]; ATCC 43300) [µg/mL]	MIC ([6]; ATCC 19434) [µg/mL]	MIC ([7]; ATCC 19606) [µg/mL]	MIC ([8]; ATCC 29213) [µg/mL]	MIC ([9]; ATCC 27853) [µg/mL]	MIC ([10]; ATCC 25922) [µg/mL]	other results
CC1(C)S[C@@H]2[C@H](NC(=O)[C@H](N)c3ccccc3)C(=O)N2[C@H]1C(=O)O [Ampicillin, ampicillin, reference compound]	>32	32																		
CCCCCCC(=O)N[C@@H](CCN)C(=O)N[C@H](C(=O)N[C@@H](CCN)C(=O)N[C@H](Cc1ccccc1)C(=O)N[C@@H](CC(C)C)C(=O)N[C@@H](CCN)C(=O)N[C@@H](C(=O)N[C@@H](CC(C)C)C(=O)N[C@@H](CO)C(N)=O)C(C)C)C(C)C [Analogue 2] (Heptanoyl-[Dab]V[Dab][dF]L[Dab][dV]LS-NH2)			0.125	0.0313-0.0625 μg/ml	256-512	0.0156 μg/ml	0.0039 μg/ml	4,096	>32	−0.17 ± 0.19	0.32 ± 0.74	0.79 ± 0.63	0.95 ± 0.45	>32	>32	>32	>32			
CCCCCCC(=O)N[C@@H](CCN)C(=O)N[C@H](C(=O)N[C@@H](CCN)C(=O)N[C@H](Cc1ccccc1)C(=O)N[C@@H](CC(C)C)C(=O)N[C@@H](CCN)C(=O)N[C@@H](C(=O)N[C@@H](CC(C)C)C(=O)N[C@@H](CO)C(N)=O)C(C)C)[C@@H](C)CC [Analogue 3] (Heptanoyl-[Dab]I[Dab][dF]L[Dab][dV]LS-NH2)			0.0078		4,096	0.0039 μg/ml	<0.00098-0.00195 μg/ml			0.18 ± 0.54	0.78 ± 0.30	1.18 ± 0.68	1.77 ± 0.81	>32	>32	>32	>32			hemolytic activity (in words) ([4]; 128 μg/mL): little hemolysis
CCCCCCC(=O)N[C@@H](CCN)C(=O)N[C@@H](Cc1ccccc1)C(=O)N[C@@H](CCN)C(=O)N[C@H](Cc1ccccc1)C(=O)N[C@@H](CC(C)C)C(=O)N[C@@H](CCN)C(=O)N[C@@H](C(=O)N[C@@H](CC(C)C)C(=O)N[C@@H](CO)C(N)=O)C(C)C [Analogue 4] (Heptanoyl-[Dab]F[Dab][dF]L[Dab][dV]LS-NH2)										0.28 ± 1.11	0.49 ± 1.22	0.60 ± 1.35	1.28 ± 1.65		>32		≥32	2 to 4	1 to 4	
CCCCCCCC(=O)N[C@@H](CCN)C(=O)NC(CCN)C(=O)N[C@@H](CCN)C(=O)N[C@H](Cc1ccccc1)C(=O)N[C@@H](CC(C)C)C(=O)N[C@@H](CCN)C(=O)N[C@@H](C(=O)N[C@@H](CC(C)C)C(=O)N[C@@H](CCN)C(N)=O)C(C)C (some centres unmarked) [Analogue 10] (Octanoyl-[Dab][ξDab][Dab][dF]L[Dab][dV]L[Dab]-NH2)				0.0313-0.0625 μg/ml	256-512	0.0625-0.125 μg/ml	0.0625 μg/ml	256	>32	0.37 ± 0.62	0.38 ± 0.62	0.41 ± 0.53	0.80 ± 0.40	>32	>32	>32	≥32	16 to 32	>32	
CCCCCCCC(=O)N[C@@H](CCCN)C(=O)N[C@H](C(=O)N[C@@H](CCCN)C(=O)N[C@H](Cc1ccccc1)C(=O)N[C@@H](CC(C)C)C(=O)N[C@@H](CCCN)C(=O)N[C@@H](C(=O)N[C@@H](CC(C)C)C(=O)N[C@@H](CO)C(N)=O)C(C)C)[C@@H](C)CC [Analogue 11] (Octanoyl-[Orn]I[Orn][dF]L[Orn][dV]LS-NH2)			0.0625	0.0156-0.0313 μg/ml	512-1,024		0.0078-0.0156 μg/ml	1,024-2,048	>32	0.86 ± 0.72	0.44 ± 0.30	0.69 ± 0.64	1.12 ± 0.47		>32		>32			
CCCCCCCCCC(=O)N[C@@H](CCN)C(=O)N[C@H](C(=O)N[C@H](C(=O)N[C@H](CC(C)C)C(=O)N[C@@H](CC(C)C)C(=O)N[C@@H](CCN)C(=O)N[C@@H](C(=O)N[C@@H](CC(C)C)C(=O)N[C@@H](CO)C(N)=O)C(C)C)C(C)O)[C@@H](C)CC (stereo partly drawn) [Analogue 13] (Decanoyl-[Dab]I[Thr(3ξ)][dL]L[Dab][dV]LS-NH2)			>0.125	>0.125 μg/ml		>0.125 μg/ml	>2 μg/ml		>32	1.25 ± 0.71	5.06 ± 1.14	10.0 ± 1.03	24.9 ± 2.71	>32	≥32	>32	>32	>32	>32	
CC[C@H](C)[C@H](NC(=O)[C@H](CCN)NC(=O)c1ccccc1)C(=O)N[C@@H](CCN)C(=O)N[C@H](Cc1ccccc1)C(=O)N[C@@H](CC(C)C)C(=O)N[C@@H](CCN)C(=O)N[C@@H](C(=O)N[C@@H](CC(C)C)C(=O)N[C@@H](CO)C(N)=O)C(C)C [Analogue 14] (Bz-[Dab]I[Dab][dF]L[Dab][dV]LS-NH2)			0.03125		2,048-4,096	0.0078 μg/ml	0.00195-0.0039 μg/ml	4,096-8,192		0.22 ± 0.17	0.71 ± 0.82	1.14 ± 1.05	0.70 ± 0.34							MIC ([9]; P. aeruginosa ATCC 27853, TSB): 8 to 32 µg/mL; MIC ([3]; K. pneumoniae ATCC 13883, TSB): >32 µg/mL; MIC ([5]; S. aureus ATCC 43300, TSB): >32 µg/mL; MIC ([10]; E. coli ATCC 25922, TSB): 16 to 32 µg/mL; MIC ([6]; E. faecium ATCC 19434, TSB): >32 µg/mL; MIC ([7]; A. baumannii ATCC 19606, TSB): >32 µg/mL; MIC ([8]; S. aureus ATCC 29213, TSB): >32 µg/mL
CC[C@H]1OC(=O)[C@H](C)[C@@H](O[C@H]2C[C@@](C)(OC)[C@@H](O)[C@H](C)O2)[C@H](C)[C@@H](O[C@@H]2O[C@H](C)C[C@H](N(C)C)[C@H]2O)[C@](C)(O)C[C@@H](C)C(=O)[C@H](C)[C@@H](O)[C@]1(C)O [Erythromycin, erythromycin, reference compound]	32	>32																		
CN[C@H](CC(C)C)C(=O)N[C@H]1C(=O)N[C@@H](CC(N)=O)C(=O)N[C@H]2C(=O)N[C@H]3C(=O)N[C@H](C(=O)N[C@H](C(=O)O)c4cc(O)cc(O)c4-c4cc3ccc4O)[C@H](O)c3ccc(c(Cl)c3)Oc3cc2cc(c3O[C@@H]2O[C@H](CO)[C@@H](O)[C@H](O)[C@H]2O[C@H]2C[C@](C)(N)[C@H](O)[C@H](C)O2)Oc2ccc(cc2Cl)[C@H]1O [Vancomycin, vancomycin, reference compound]	>32	>32																		
